In publication PMC7391767, “Molecular mechanisms underlying menthol binding and activation of TRPM8 ion channel” (Nature Communications, 2020):
Where “and” joins values, the source holds several entries; their conditions need not be identical. Equal values may be shown once. Read-outs that look alike come from different tables or passages of the source.

Target: T1, TRPM8 I846V (Mus musculus, UniProt Q8R4D5, I846V)
T1 construct: expressed in transfected cells; host or cells: HEK293T
Test: whole-cell patch-clamp and thermodynamic mutant cycle analysis
Type: cell-based

T1 sequence (Q8R4D5 whole entry I846V): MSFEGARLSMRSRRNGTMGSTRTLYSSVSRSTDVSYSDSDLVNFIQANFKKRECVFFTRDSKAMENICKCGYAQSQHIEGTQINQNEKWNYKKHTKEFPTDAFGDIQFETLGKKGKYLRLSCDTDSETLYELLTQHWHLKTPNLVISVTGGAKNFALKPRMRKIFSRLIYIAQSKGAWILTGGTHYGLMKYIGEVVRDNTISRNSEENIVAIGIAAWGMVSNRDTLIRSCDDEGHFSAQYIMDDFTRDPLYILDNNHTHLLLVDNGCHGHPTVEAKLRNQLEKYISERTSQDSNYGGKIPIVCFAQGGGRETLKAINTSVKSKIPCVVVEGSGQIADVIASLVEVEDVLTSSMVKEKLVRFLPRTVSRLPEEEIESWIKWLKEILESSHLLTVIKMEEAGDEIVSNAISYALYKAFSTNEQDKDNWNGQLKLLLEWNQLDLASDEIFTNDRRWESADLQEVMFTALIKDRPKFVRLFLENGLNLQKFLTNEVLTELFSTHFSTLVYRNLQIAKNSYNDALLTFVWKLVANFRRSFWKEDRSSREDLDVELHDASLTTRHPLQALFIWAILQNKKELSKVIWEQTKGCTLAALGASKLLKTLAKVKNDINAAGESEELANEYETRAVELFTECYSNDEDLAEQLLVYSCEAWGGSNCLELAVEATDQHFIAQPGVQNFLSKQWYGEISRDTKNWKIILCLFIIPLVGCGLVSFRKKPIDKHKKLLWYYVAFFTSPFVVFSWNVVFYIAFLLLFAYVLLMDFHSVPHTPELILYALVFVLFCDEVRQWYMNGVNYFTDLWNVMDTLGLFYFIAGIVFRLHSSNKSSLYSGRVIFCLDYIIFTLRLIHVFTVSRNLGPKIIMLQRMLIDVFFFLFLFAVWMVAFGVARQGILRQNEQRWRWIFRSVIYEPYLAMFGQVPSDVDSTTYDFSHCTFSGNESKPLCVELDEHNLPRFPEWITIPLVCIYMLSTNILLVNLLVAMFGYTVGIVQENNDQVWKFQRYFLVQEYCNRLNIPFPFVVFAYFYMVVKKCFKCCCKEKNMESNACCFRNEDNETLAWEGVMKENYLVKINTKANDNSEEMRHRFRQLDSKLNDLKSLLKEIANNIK

CC(C)[C@@H]1CC[C@@H](C)C[C@H]1O [menthol, (−)-menthol]
L (equilibrium constant between closed and open states upon ligand binding), Ave: 5.981
concentration–response curve value, ave (1 microM): 0.07755
concentration–response curve value, ave (20 microM): 0.2593
concentration–response curve value, ave (100 microM): 0.6986
concentration–response curve value, ave (500 microM): 0.7722
concentration–response curve value, ave (2000 microM): 0.7707
concentration–response curve value, single recording (2000 microM): 0.8798 and 0.8106 and 0.8028 and 0.882 and 0.5707 and 0.6784
Kd (calculated from concentration–response curves, read-out: Kd, Ave): 120 µM
Kd (read-out: Kd, single recording): 88.3 µM and 109 µM and 97.6 µM and 116 µM and 189 µM
